From US9149038B2, “4-amino-6-(heterocyclic)picolinates and 6-amino-2-(heterocyclic)pyrimidine-4-carboxylates and their use as herbicides” (Dow AgroSciences LLC, priority 2013, dated 2015)
Read-outs that look alike come from different tables or passages of the source.

Legend:
[1] = system: Key Broadleaf Weed and Crop Species; experiment: Post-Emergent Test II: postemergent herbicidal activity, visual rating after 14 d (Table 7); format: in vivo; conditions: post-emergence, 336 h; for pest or weed control at 35 g/ha: 35 g ai/ha; for pest or weed control at 70 g/ha: 70 g ai/ha; for pest or weed control at 140 g/ha: 140 g ai/ha
Summary of the method: (§1)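 Greenhouse plants at first or second true leaf stage sprayed with compound in acetone/DMSO-based spray solution with crop oil concentrate and Triton X-155 at 187 L/ha, tested at highest rate and ½× to 1/16× dilutions; solvent blank controls. Injury rated visually 0–100% versus untreated plants after 14 d.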

[2] = system: Key Grass and Sedge Weeds as well as Grass Crops; experiment: Post-Emergent Test II: postemergent herbicidal activity, visual rating after 14 d (Table 8); format: in vivo; conditions: post-emergence, 336 h; for pest or weed control at 35 g/ha: 35 g ai/ha; for pest or weed control at 70 g/ha: 70 g ai/ha; for pest or weed control at 140 g/ha: 140 g ai/ha
Summary of the method: as §1

[3] = lambsquarters (Chenopodium album), read-out: Visual Growth Reduction (%) 14 Days After Application CHEAL
[4] = oilseed rape, canola (Brassica napus), read-out: Visual Growth Reduction (%) 14 Days After Application BRSNN
[5] = redroot pigweed (Amaranthus retroflexus), read-out: Visual Growth Reduction (%) 14 Days After Application AMARE
[6] = sunflower (Helianthus annuus), read-out: Visual Growth Reduction (%) 14 Days After Application HELAN
[7] = velvetleaf (Abutilon theophrasti), read-out: Visual Growth Reduction (%) 14 Days After Application ABUTH
[8] = wild poinsettia (Euphorbia heterophylla), read-out: Visual Growth Reduction (%) 14 Days After Application EPHHL
[9] = barnyardgrass (Echinochloa crus-galli), read-out: Visual Growth Reduction (%) 14 Days After Application ECHCG
[10] = giant foxtail (Setaria faberi), read-out: Visual Growth Reduction (%) 14 Days After Application SETFA
[11] = maize, corn (Zea mays), read-out: Visual Growth Reduction (%) 14 Days After Application ZEAMX
[12] = rice (Oryza sativa), read-out: Visual Growth Reduction (%) 14 Days After Application ORYSA
[13] = wheat, spring (Triticum aestivum), read-out: Visual Growth Reduction (%) 14 Days After Application TRZAS
[14] = yellow nutsedge (Cyperus esculentus), read-out: Visual Growth Reduction (%) 14 Days After Application CYPES

| Structure (SMILES) | pest or weed control at 35 g/ha [1, 3] [%] | pest or weed control at 70 g/ha [1, 3] [%] | pest or weed control at 140 g/ha [1, 3] [%] | pest or weed control at 35 g/ha [1, 4] [%] | pest or weed control at 70 g/ha [1, 4] [%] | pest or weed control at 140 g/ha [1, 4] [%] | pest or weed control at 35 g/ha [1, 5] [%] | pest or weed control at 70 g/ha [1, 5] [%] | pest or weed control at 140 g/ha [1, 5] [%] | pest or weed control at 35 g/ha [1, 6] [%] | pest or weed control at 70 g/ha [1, 6] [%] | pest or weed control at 140 g/ha [1, 6] [%] | pest or weed control at 35 g/ha [1, 7] [%] | pest or weed control at 70 g/ha [1, 7] [%] | pest or weed control at 140 g/ha [1, 7] [%] | pest or weed control at 35 g/ha [1, 8] [%] | pest or weed control at 70 g/ha [1, 8] [%] | pest or weed control at 140 g/ha [1, 8] [%] | pest or weed control at 35 g/ha [2, 9] [%] | pest or weed control at 70 g/ha [2, 9] [%] | further results |
| --- | --- | --- | --- | --- | --- | --- | --- | --- | --- | --- | --- | --- | --- | --- | --- | --- | --- | --- | --- | --- | --- |
| COC(=O)c1nc(-c2cc3c(cc2OC)OC(F)(F)O3)cc(N)c1Cl [Compound 38] | 0 to 29 | 0 to 29 | 0 to 29 | 0 to 29 | 0 to 29 | 0 to 29 | 0 to 29 | 60 to 74 | 60 to 74 | 0 to 29 | 0 to 29 | 60 to 74 | 0 to 29 | 0 to 29 | 0 to 29 | 0 to 29 | 0 to 29 | 0 to 29 | 0 to 29 | 0 to 29 | pest or weed control at 140 g/ha [2, 9]: 0 to 29%; pest or weed control at 35 g/ha [2, 10]: 0 to 29%; pest or weed control at 70 g/ha [2, 10]: 0 to 29%; pest or weed control at 140 g/ha [2, 10]: 0 to 29%; pest or weed control at 35 g/ha [2, 11]: 0 to 29%; pest or weed control at 70 g/ha [2, 11]: 0 to 29%; pest or weed control at 140 g/ha [2, 11]: 0 to 29%; pest or weed control at 35 g/ha [2, 12]: 0 to 29%; pest or weed control at 70 g/ha [2, 12]: 0 to 29%; pest or weed control at 140 g/ha [2, 12]: 0 to 29%; pest or weed control at 35 g/ha [2, 13]: 0 to 29%; pest or weed control at 70 g/ha [2, 13]: 0 to 29%; pest or weed control at 140 g/ha [2, 13]: 0 to 29%; pest or weed control at 35 g/ha [2, 14]: 0 to 29%; pest or weed control at 70 g/ha [2, 14]: 0 to 29%; pest or weed control at 140 g/ha [2, 14]: 0 to 29% |
| Nc1cc(-c2ccc3c(c2F)OC(F)(F)O3)nc(C(=O)O)c1Cl [Compound 41] | 85 to 94 | 85 to 94 | 85 to 94 | 60 to 74 | 75 to 84 | 75 to 84 | 95 to 100 | 95 to 100 | 95 to 100 | 0 to 29 | 60 to 74 | 60 to 74 | 60 to 74 | 75 to 84 | 75 to 84 | 95 to 100 | 95 to 100 | 95 to 100 | 75 to 84 | 85 to 94 | pest or weed control at 140 g/ha [2, 9]: 95 to 100%; pest or weed control at 35 g/ha [2, 10]: 75 to 84%; pest or weed control at 70 g/ha [2, 10]: 85 to 94%; pest or weed control at 140 g/ha [2, 10]: 85 to 94%; pest or weed control at 35 g/ha [2, 11]: 60 to 74%; pest or weed control at 70 g/ha [2, 11]: 75 to 84%; pest or weed control at 140 g/ha [2, 11]: 75 to 84%; pest or weed control at 35 g/ha [2, 12]: 0 to 29%; pest or weed control at 70 g/ha [2, 12]: 0 to 29%; pest or weed control at 140 g/ha [2, 12]: 0 to 29%; pest or weed control at 35 g/ha [2, 13]: 30 to 44%; pest or weed control at 70 g/ha [2, 13]: 30 to 44%; pest or weed control at 140 g/ha [2, 13]: 45 to 59%; pest or weed control at 35 g/ha [2, 14]: 0 to 29%; pest or weed control at 70 g/ha [2, 14]: 0 to 29%; pest or weed control at 140 g/ha [2, 14]: 0 to 29% |
| Nc1cc(-c2cc3c(cc2F)OC(F)(F)O3)nc(C(=O)O)c1Cl [Compound 42] | 85 to 94 | 85 to 94 | 85 to 94 | 95 to 100 | 95 to 100 | 95 to 100 | 95 to 100 | 95 to 100 | 95 to 100 | 45 to 59 | 60 to 74 | 75 to 84 | 85 to 94 | 85 to 94 | 85 to 94 | 95 to 100 | 95 to 100 | 95 to 100 | 95 to 100 | 95 to 100 | pest or weed control at 140 g/ha [2, 9]: 95 to 100%; pest or weed control at 35 g/ha [2, 10]: 60 to 74%; pest or weed control at 70 g/ha [2, 10]: 75 to 84%; pest or weed control at 140 g/ha [2, 10]: 75 to 84%; pest or weed control at 35 g/ha [2, 11]: 60 to 74%; pest or weed control at 70 g/ha [2, 11]: 75 to 84%; pest or weed control at 140 g/ha [2, 11]: 75 to 84%; pest or weed control at 35 g/ha [2, 12]: 30 to 44%; pest or weed control at 70 g/ha [2, 12]: 30 to 44%; pest or weed control at 140 g/ha [2, 12]: 30 to 44%; pest or weed control at 35 g/ha [2, 13]: 60 to 74%; pest or weed control at 70 g/ha [2, 13]: 60 to 74%; pest or weed control at 140 g/ha [2, 13]: 60 to 74%; pest or weed control at 35 g/ha [2, 14]: 95 to 100%; pest or weed control at 70 g/ha [2, 14]: 95 to 100%; pest or weed control at 140 g/ha [2, 14]: 95 to 100% |
| Nc1cc(-c2cc(F)c3c(c2)OC(F)(F)O3)nc(C(=O)O)c1Cl [Compound 44] | 0 to 29 | 0 to 29 | 0 to 29 | 0 to 29 | 0 to 29 | 0 to 29 | 0 to 29 | 0 to 29 | 0 to 29 | 0 to 29 | 0 to 29 | 0 to 29 | 0 to 29 | 0 to 29 | 0 to 29 | 0 to 29 | 0 to 29 | 0 to 29 | 60 to 74 | 60 to 74 | pest or weed control at 140 g/ha [2, 9]: 75 to 84%; pest or weed control at 35 g/ha [2, 10]: 0 to 29%; pest or weed control at 70 g/ha [2, 10]: 0 to 29%; pest or weed control at 140 g/ha [2, 10]: 0 to 29%; pest or weed control at 35 g/ha [2, 11]: 0 to 29%; pest or weed control at 70 g/ha [2, 11]: 0 to 29%; pest or weed control at 140 g/ha [2, 11]: 0 to 29%; pest or weed control at 35 g/ha [2, 12]: 0 to 29%; pest or weed control at 70 g/ha [2, 12]: 0 to 29%; pest or weed control at 140 g/ha [2, 12]: 0 to 29%; pest or weed control at 35 g/ha [2, 13]: 0 to 29%; pest or weed control at 70 g/ha [2, 13]: 0 to 29%; pest or weed control at 140 g/ha [2, 13]: 0 to 29%; pest or weed control at 35 g/ha [2, 14]: 0 to 29%; pest or weed control at 70 g/ha [2, 14]: 0 to 29%; pest or weed control at 140 g/ha [2, 14]: 0 to 29% |
